Columns and labels:
Type in all cases: functional
[1] = tested on: RPMI-8226; assay: In vitro inhibition of human 8226 myeloma tumor cell line growth.; details: read-out: ID50 (the source's name)
[2] = Tested in vitro for inhibitory activity of human tumor cell growth against HEC 1A endometrial tumor, by using clonogenic assays.; details: read-out: ID50 (the source's name)
[3] = In vitro inhibition of human UACC-66 ovarian tumor cell line growth.; details: read-out: ID50 (the source's name)
[4] = tested on: WiDr; assay: Tested in vitro for inhibitory activity of human tumor cell growth against WIDR colon tumor, by using clonogenic assays.; details: read-out: ID50 (the source's name)
[5] = tested on: P388; assay: Antileukemic activity against P-388 in mice at a dose of 67 mg/kg administered intraperitoneally after 3 day treatment; details: Mus musculus, P388, ip, 72 h, route intraperitoneal
[6] = tested on: P388; assay: Antileukemic activity against P-388/ADR (P-388 cells resistant to adriamycin) in mice at a dose of 44 mg/kg administered intraperitoneally after 3 day treatment(Trial 2); details: Mus musculus, P388, ip, 72 h, route intraperitoneal
[7] = tested on: P388; assay: Antileukemic activity against P-388 in mice at a dose of 100 mg/kg administered intraperitoneally after 3 day treatment(Trial 2); details: Mus musculus, P388, ip, 72 h, route intraperitoneal
[8] = tested on: P388; assay: Antileukemic activity against P-388 in mice at a dose of 100 mg/kg administered intraperitoneally after 3 day treatment; details: Mus musculus, P388, ip, 72 h, route intraperitoneal
[9] = tested on: P388; assay: Antileukemic activity against P-388/ADR (P-388 cells resistant to adriamycin) in mice at a dose of 30 mg/kg administered intraperitoneally after 3 day treatment(Trial 2); details: Mus musculus, P388, ip, 72 h, route intraperitoneal
[10] = tested on: P388; assay: Antileukemic activity against P-388 in mice at a dose of 67 mg/kg administered intraperitoneally after 3 day treatment(Trial 2); details: Mus musculus, P388, ip, 72 h, route intraperitoneal
[11] = tested on: P388; assay: Antileukemic activity against P-388 in mice at a dose of 44 mg/kg administered intraperitoneally after 3 day treatment(Trial 2); details: Mus musculus, P388, ip, 72 h, route intraperitoneal
[12] = tested on: P388; assay: Antileukemic activity against P-388/ADR (P-388 cells resistant to adriamycin) n mice at a dose of 67 mg/kg administered intraperitoneally after 3 day treatment(Trial 2); details: Mus musculus, P388, ip, 72 h, route intraperitoneal
[13] = tested on: P388; assay: Antileukemic activity against P-388 in mice at a dose of 125 mg/kg administered intraperitoneally after 3 day treatment; details: Mus musculus, P388, ip, 72 h, route intraperitoneal
[14] = tested on: P388; assay: Antileukemic activity against P-388 in mice at a dose of 44 mg/kg administered intraperitoneally after 3 day treatment; details: Mus musculus, P388, ip, 72 h, route intraperitoneal
[15] = tested on: P388; assay: Antileukemic activity against P-388/ADR (P-388 cells resistant to adriamycin) in mice at a dose of 100 mg/kg administered intraperitoneally after 3 day treatment(Trial 2); details: Mus musculus, P388, ip, 72 h, route intraperitoneal
[16] = tested on: P388; assay: Antileukemic activity against P-388 in mice at a dose of 30 mg/kg administered intraperitoneally after 3 day treatment(Trial 2); details: Mus musculus, P388, ip, 72 h, route intraperitoneal
[17] = tested on: L1210; assay: Effect on protein synthesis was determined by incorporation of radioligand into L1210 murine leukemia at a concentration of 0.01 ug/mL; details: Mus musculus
[18] = tested on: RPMI-8226; assay: Effect on DNA synthesis was determined by incorporation of radioligand into 8226 human myeloma cells at a concentration of 0.01 ug/mL
[19] = tested on: RPMI-8226; assay: Effect on RNA synthesis was determined by incorporation of radioligand into 8226 human myeloma cells at a concentration of 0.01 ug/mL
[20] = tested on: RPMI-8226; assay: Effect on RNA synthesis was determined by incorporation of radioligand into 8226 human myeloma cells at a concentration of 1 ug/mL. (*: >50% cell kill)
[21] = tested on: RPMI-8226; assay: Effect on DNA synthesis was determined by incorporation of radioligand into 8226 human myeloma cells at a concentration of 1 ug/mL. (*: >50% cell kill)
[22] = tested on: RPMI-8226; assay: Effect on protein synthesis was determined by incorporation of radioligand into 8226 human myeloma cells at a concentration of 0.1 ug/mL
[23] = tested on: L1210; assay: Effect on protein synthesis was determined by incorporation of radioligand into L1210 murine leukemia at a concentration of 0.1 ug/mL; details: Mus musculus
[24] = tested on: L1210; assay: Effect on DNA synthesis was determined by incorporation of radioligand into L1210 murine leukemia at a concentration of 0.1 ug/mL; details: Mus musculus
[25] = tested on: L1210; assay: Effect on DNA synthesis was determined by incorporation of radioligand into L1210 murine leukemia at a concentration of 10 ug/mL (*: >1 log cell kill); details: Mus musculus
[26] = tested on: L1210; assay: Effect on RNA synthesis was determined by incorporation of radioligand into L1210 murine leukemia at a concentration of 1 ug/mL. (*: >50% cell kill); details: Mus musculus
[27] = tested on: L1210; assay: Effect on RNA synthesis was determined by incorporation of radioligand into L1210 murine leukemia at a concentration of 0.1 ug/mL; details: Mus musculus
[28] = tested on: L1210; assay: Effect on DNA synthesis was determined by incorporation of radioligand into L1210 murine leukemia at a concentration of 0.01 ug/mL; details: Mus musculus
[29] = tested on: L1210; assay: Effect on protein synthesis was determined by incorporation of radioligand into L1210 murine leukemia at a concentration of 10 ug/mL (*: >1 log cell kill); details: Mus musculus
[30] = tested on: L1210; assay: Effect on protein synthesis was determined by incorporation of radioligand into L1210 murine leukemia at a concentration of 1 ug/mL. (*: >50% cell kill); details: Mus musculus
[31] = tested on: L1210; assay: Effect on DNA synthesis was determined by incorporation of radioligand into L1210 murine leukemia at a concentration of 1 ug/mL. (*: >50% cell kill); details: Mus musculus
[32] = tested on: RPMI-8226; assay: Effect on RNA synthesis was determined by incorporation of radioligand into 8226 human myeloma cells at a concentration of 0.1 ug/mL
[33] = tested on: RPMI-8226; assay: Effect on protein synthesis was determined by incorporation of radioligand into 8226 human myeloma cells at a concentration of 10 ug/mL (*: >1 log cell kill)
[34] = tested on: RPMI-8226; assay: Effect on protein synthesis was determined by incorporation of radioligand into 8226 human myeloma cells at a concentration of 1 ug/mL. (*: >50% cell kill)
[35] = tested on: L1210; assay: Effect on RNA synthesis was determined by incorporation of radioligand into L1210 murine leukemia at a concentration of 0.01 ug/mL; details: Mus musculus
[36] = tested on: RPMI-8226; assay: Effect on protein synthesis was determined by incorporation of radioligand into 8226 human myeloma cells at a concentration of 0.01 ug/mL
[37] = tested on: RPMI-8226; assay: Effect on RNA synthesis was determined by incorporation of radioligand into 8226 human myeloma cells at a concentration of 10 ug/mL (*: >1 log cell kill)
[38] = tested on: L1210; assay: Effect on RNA synthesis was determined by incorporation of radioligand into L1210 murine leukemia at a concentration of 10 ug/mL (*: >1 log cell kill); details: Mus musculus
[39] = tested on: RPMI-8226; assay: Effect on DNA synthesis was determined by incorporation of radioligand into 8226 human myeloma cells at a concentration of 0.1 ug/mL
[40] = tested on: RPMI-8226; assay: Effect on DNA synthesis was determined by incorporation of radioligand into 8226 human myeloma cells at a concentration of 10 ug/mL (*: >1 log cell kill)

CN(C)CCCNCc1c2ccccc2c(CNCCCN(C)C)c2ccccc12
IC50 [1]: 11 µM | IC50 [2]: 56.8 µM

CNCCN(C)Cc1c2ccccc2c(CN(C)CCNC)c2ccccc12
IC50 [1]: 3.51 µM | IC50 [3]: 3.42 µM | IC50 [4]: 1.93 µM

OCCCCCNCc1c2ccccc2c(CNCCCCCO)c2ccccc12
IC50 [1]: 4.67 µM | IC50 [3]: 24.7 µM | IC50 [4]: 13.4 µM

c1ccc2c(CNCCN3CCOCC3)c3ccccc3c(CNCCN3CCOCC3)c2c1
ILS at 67 mg/kg [5]: 33% | ILS at 44 mg/kg [6]: 15% | ILS at 100 mg/kg [7]: 9% | ILS at 100 mg/kg [8]: -34% | ILS at 30 mg/kg [9]: 5% | ILS at 67 mg/kg [10]: 9% | ILS at 44 mg/kg [11]: -5% | ILS at 67 mg/kg [12]: 15% | IC50 [1]: 0.02 µM | IC50 [3]: 0.03 µM | ILS at 125 mg/kg [13]: -81% | ILS at 44 mg/kg [14]: 28% | ILS at 100 mg/kg [15]: 40% | ILS at 30 mg/kg [16]: 4% | IC50 [4]: 0.02 µM

c1ccc2c(CC3=NCCN3)c3ccccc3c(CC3=NCCN3)c2c1
IC50 [2]: 5.6 µM | IC50 [3]: 4.36 µM

CN(C)CCN(C)Cc1c2ccccc2c(CN(C)CCN(C)C)c2ccccc12
IC50 [1]: 0.29 µM | IC50 [3]: 0.7 µM | IC50 [4]: 0.14 µM

OCCNCc1c2ccccc2c(CNCCO)c2ccccc12
IC50 [1]: 27.8 µM | IC50 [3]: 74.9 µM

C(=N\Nc1nccs1)/c1c2ccccc2c(/C=N/Nc2nccs2)c2ccccc12
IC50 [1]: 6.26 µM | IC50 [2]: 200 µM | IC50 [3]: 8.8 µM | IC50 [4]: 5.9 µM

CN1CCN(Cc2c3ccccc3c(CN3CCN(C)CC3)c3ccccc23)CC1
IC50 [1]: 0.1 µM | IC50 [4]: 10.4 µM

OCCOCCNCc1c2ccccc2c(CNCCOCCO)c2ccccc12
IC50 [1]: 0.23 µM | IC50 [3]: 6.57 µM | IC50 [4]: 2.91 µM

C(=N\NC1=NCCN1)/c1c2ccccc2c(/C=N/NC2=NCCN2)c2ccccc12 [BISANTRENE]
inhibition at 0.01 µg/mL [17]: 0% | inhibition at 0.01 µg/mL [18]: 0% | inhibition at 0.01 µg/mL [19]: 0% | inhibition at 1 µg/mL [20]: 91.6% | inhibition at 1 µg/mL [21]: 79.9% | inhibition at 0.1 µg/mL [22]: 20.2% | inhibition at 0.1 µg/mL [23]: 5.6% | inhibition at 0.1 µg/mL [24]: 9.3% | inhibition at 10 µg/mL [25]: 66.8% | inhibition at 1 µg/mL [26]: 21.7% | inhibition at 0.1 µg/mL [27]: 24.1% | inhibition at 0.01 µg/mL [28]: 1.8% | inhibition at 10 µg/mL [29]: 89% | inhibition at 1 µg/mL [30]: 48.5% | inhibition at 1 µg/mL [31]: 43.6% | inhibition at 0.1 µg/mL [32]: 21% | inhibition at 10 µg/mL [33]: 63.5% | IC50 [1]: 0.23 µM | inhibition at 1 µg/mL [34]: 41.9% | IC50 [2]: 0.38 µM | IC50 [3]: 2.4 µM | inhibition at 0.01 µg/mL [35]: 0% | inhibition at 0.01 µg/mL [36]: 0% | inhibition at 10 µg/mL [37]: 92.9% | inhibition at 10 µg/mL [38]: 96.1% | IC50 [4]: 0.44 µM | inhibition at 0.1 µg/mL [39]: 33.3% | inhibition at 10 µg/mL [40]: 97.7%

NCCNCc1c2ccccc2c(CNCCN)c2ccccc12
IC50 [1]: 692 µM | IC50 [3]: 4.14 µM | IC50 [4]: 0.42 µM

NCCN(CCO)Cc1c2ccccc2c(CN(CCN)CCO)c2ccccc12
IC50 [3]: 5.76 µM | IC50 [4]: 5.04 µM

CC(C)N(CCNCc1c2ccccc2c(CNCCN(C(C)C)C(C)C)c2ccccc12)C(C)C
IC50 [1]: 7.63 µM | IC50 [4]: 15.5 µM

CCN1CCCC(NCc2c3ccccc3c(CNC3CCCN(CC)C3)c3ccccc23)C1 (configuration not stated)
IC50 [1]: 0.04 µM | IC50 [4]: 5.63 µM

OCCCNCc1c2ccccc2c(CNCCCO)c2ccccc12
IC50 [3]: 18.2 µM
